Experimental data from patent publication US5998377A, “Means for treating prostate cancer” (ASTA Medica Aktiengesellschaft, priority 1998, dated 1999).
Non-standard residues stand in square brackets, D forms with d. Residues, ends and D or L forms follow the SMILES beside them. dPhe(4-Cl) = N[C@H](Cc1ccc(Cl)cc1)C(=O)O; d2Nal = N[C@H](Cc1ccc2ccccc2c1)C(=O)O; dCit = NC(=O)NCCC[C@@H](N)C(=O)O; d3Pal = N[C@H](Cc1cccnc1)C(=O)O

How the values were obtained:
BPH patients [1] = settings: cited from earlier work
BPH patients [2] = assay: Clinical therapy of BPH with Cetrorelix (Example 1); type: in vivo, human; settings: therapy regimen of 4 to 8 weeks
Method: The invention will be explained in detail using the following clinical results:
Cetrorelix is administered in a dose of 0.5 mg to 2 mg daily for 4 to 8 weeks for the therapy of BPH. A dose of 5 mg to 30 mg, dispensed once per week or every 10 days also over a time period of 4 to 8 weeks as well as one every two weeks or one injection per month of 20 mg to 60 mg can also decisively improve the clinical symptoms and signs. […] The prostate volume decreases by 20 to 40% during the treatment time of 4 to 8 weeks. […] In addition, at least 30% of the patients achieve an improvement of the urine flow of 6 ml/sec with this therapy. This is almost equivalent to an improvement like that associated with the golden standard operation, and in considerably shorter time. […] These clinical benefits continue for at least 3 to 6 months after therapy. This allows a long-term therapy of BPH with only an intermittent treatment of 2 to max. 4 injection cycles over 4 to 8 weeks.

[3] = system: prostate carcinoma patients; settings: cited from earlier work
[4] = BPH patients, 500 μg every 12 hours for 4 weeks
[5] = prostate carcinoma patients, end of the 6 weeks of therapy

In the case of CC(=O)N[C@H](Cc1ccc2ccccc2c1)C(=O)N[C@H](Cc1ccc(Cl)cc1)C(=O)N[C@H](Cc1cccnc1)C(=O)N[C@@H](CO)C(=O)N[C@@H](Cc1ccc(O)cc1)C(=O)N[C@H](CCCNC(N)=O)C(=O)N[C@@H](CC(C)C)C(=O)N[C@@H](CCCNC(=N)N)C(=O)N1CCC[C@H]1C(=O)N[C@H](C)C(N)=O [Cetrorelix] (Ac-[d2Nal][dPhe(4-Cl)][d3Pal]SY[dCit]LRP[dA]-NH2), the “testosterone levels, initially” value (BPH patients [1]; BPH patients (all patients), 500 μg every 12 hours, initially) is listed as “lowering in testosterone levels to a castration level”, the prostate volume (BPH patients [1]; [4]) is listed as “a decrease in prostate volume” and the symptoms of dysuria (BPH patients [1]; [4]) is listed as “distinct decrease of the symptoms of dysuria”. For the same compound, the “testosterone levels during treatment” value (BPH patients [1]; BPH patients, 500 μg every 12 hours for 4 weeks, no castration values during the last three weeks) was “fluctuated at subnormal levels”, the “increase of the peak flow of the urine” value (BPH patients [2]) was “approximately 3 ml/sec” and the “patients achieving an improvement of the urine flow of 6 ml/sec” value (BPH patients [2]) was “at least 30%”. The quality of life (BPH patients [2]) was “significant improvements as regards quality of life”, the sexual performance (BPH patients [2]) was “No limitations in sexual performance are observed” and the testosterone decrease (BPH patients [2]) was “Submaximal decreases of testosterone occur, but these are above those levels associated with castration”. The “testosterone levels, initially” value ([3]; prostate carcinoma patients (all patients), 500 μg every 12 hours, initially) was “lowering in testosterone levels to a castration level”, the “overall condition of the patient” value [3, 5] was “considerable improvement” and the “testosterone values at the end of therapy” value [3, 5] was “at the castration levels”.
